Where two headings read alike, the source gives them in different places.
What was measured:
[1] = target: T1, CebR (SCAB57761) (Streptomyces scabiei, UniProt C9Z452); experiment: EMSA: loss of DNA binding of pure CebR-His6 preincubated with the sugar; assay type: biochemical
T1 construct: gene SCAB_57761; CebR-His6 (pure)

[2] = target: T2, CebE (SCAB57751, CebE^scab) (Streptomyces scabiei, UniProt C9Z451); experiment: intrinsic tryptophan fluorescence titration of purified protein; assay type: binding
T2 construct: gene SCAB_57751; N-terminally 6His-tagged CebE without its first 44 codons (signal peptide and membrane-anchoring lipopeptide), produced in E. coli
T2 sequence (C9Z451 45-454): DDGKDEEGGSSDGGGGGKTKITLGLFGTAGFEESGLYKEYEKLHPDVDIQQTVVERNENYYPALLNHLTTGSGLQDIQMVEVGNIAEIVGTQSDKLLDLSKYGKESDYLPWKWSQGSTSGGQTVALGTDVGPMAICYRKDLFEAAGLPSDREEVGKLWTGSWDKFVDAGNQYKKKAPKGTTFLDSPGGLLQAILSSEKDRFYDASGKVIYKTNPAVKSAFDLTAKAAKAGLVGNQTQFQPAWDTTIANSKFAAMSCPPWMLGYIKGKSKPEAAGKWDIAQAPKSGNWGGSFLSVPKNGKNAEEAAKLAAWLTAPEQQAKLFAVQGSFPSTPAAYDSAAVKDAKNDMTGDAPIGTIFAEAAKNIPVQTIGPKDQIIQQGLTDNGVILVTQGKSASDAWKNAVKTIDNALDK

[3] = target: CebR (UniProt C9Z452 1-352); experiment: EMSA; CebR 0-480 nM; no oligosaccharide; EMSA as in earlier work (buffer, salt, pH not given); 15 pmol Cy5 probe and 150 pmol CebR-6His in Methods, legend gives 6 nM probe (panel D) and CebR 0-480 nM (panel C); 1% agarose gel run at room temperature; details: protein: recombinant; tags: His6 (printed as CebR-6His / CebR-His6); chain copies: 2; blunt

OC[C@H]1O[C@@H](O[C@H]2[C@H](O)[C@@H](O)C(O)O[C@@H]2CO)[C@H](O)[C@@H](O)[C@@H]1O (some centres unmarked) [(Glc)2, cellobiose]
EMSA: loss of DNA binding of pure CebR-His6 preincubated with the sugar [1]: EMSAs demonstrating that cellobiose and cellotriose are able to inhibit the DNA-binding ability of CebR
Kd [2]: 14 nM

OC[C@H]1O[C@@H](O[C@H]2[C@H](O)[C@@H](O)[C@H](O[C@H]3[C@H](O)[C@@H](O)C(O)O[C@@H]3CO)O[C@@H]2CO)[C@H](O)[C@@H](O)[C@@H]1O (some centres unmarked) [(Glc)3, cellotriose]
EMSA: loss of DNA binding of pure CebR-His6 preincubated with the sugar [1]: EMSAs demonstrating that cellobiose and cellotriose are able to inhibit the DNA-binding ability of CebR
Kd ([2]; read-out: Kd): 2 nM

B1: cbsbglC probe (dsDNA)
DNA 1: CGACCACCAATGGGAGCGCTTCCATGCCTGAACC
DNA 2: GGTTCAGGCATGGAAGCGCTCCCATTGGTGGTCG
binding result [3]: binds

From PMC4890002, “The CebE/MsiK Transporter is a Doorway to the Cello-oligosaccharide-mediated Induction of Streptomyces scabies Pathogenicity” (Scientific Reports, 2016)
